Assay results as given in patent publication US11071300B2, “Pesticidally active pyrazole derivatives” (SYNGENTA PARTICIPATIONS AG, priority 2017, dated 2021).
Read-outs that look alike come from different tables or passages of the source.

Assays:
Type in all cases: in vivo
Diabrotica Balteata = assay: Diabrotica balteata (corn root worm) maize sprout test; conditions: 96 h, read-out: control (mortality and growth inhibition)
Method: Diabrotica Balteata, (Corn Root Worm)
Maize sprouts, placed on an agar layer in 24-well microtiter plates were treated with aqueous test solutions prepared from 10′000 ppm DMSO stock solutions by spraying. After drying, the plates were infested with L2 larvae (6 to 10 per well). The samples were assessed for mortality and growth inhibition in comparison to untreated samples 4 days after infestation.

Plutella xylostella = Plutella xylostella (diamond back moth) artificial diet test; conditions: 120 h, read-out: control (mortality and growth inhibition)
Method: Plutella xylostella (Diamond Back Moth):
24-well microtiter plates with artificial diet were treated with aqueous test solutions prepared from 10′000 ppm DMSO stock solutions by pipetting. After drying, the plates were infested with L2 larvae (10 to 15 per well). The samples were assessed for mortality and growth inhibition in comparison to untreated samples 5 days after infestation.

Thrips tabaci = Thrips tabaci (onion thrips) leaf disc test; conditions: foliar, 144 h, read-out: control (mortality)
Method: Thrips tabaci (Onion Thrips):
Sunflower leaf discs were placed on agar in 24-well microtiter plates and sprayed with aqueous test solutions prepared from 10′000 ppm DMSO stock solutions. After drying the leaf discs were infested with a thrips population of mixed ages. The samples were assessed for mortality 6 days after infestation.

Euschistus heros = Euschistus heros (neotropical brown stink bug) soybean leaf test; conditions: 120 h, read-out: control (mortality and growth inhibition)
Method: Euschistus heros (Neotropical Brown Stink Bug):
Soybean leaves on agar in 24-well microtiter plates were sprayed with aqueous test solutions prepared from 10′000 ppm DMSO stock solutions. After drying the leaves were infested with N2 nymphs. The samples were assessed for mortality and growth inhibition in comparison to untreated samples 5 days after infestation.

Spodoptera littoralis = Spodoptera littoralis (Egyptian cotton leaf worm) leaf disc test; conditions: foliar, 72 h, application rate 200 ppm, cotton leaf discs sprayed, L1 larvae, 3 days after infestation, read-out: control (at least one of mortality, anti-feedant effect, growth inhibition)
How it was run: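 Five first-instar larvae per disc were placed on dried, sprayed cotton leaf discs held on agar. Test solutions were aqueous, made from 10′000 ppm DMSO stocks. At day 3, control was counted when mortality, feeding deterrence or growth inhibition exceeded the untreated discs.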

Myzus persicae = Myzus persicae (green peach aphid) leaf disc test; conditions: foliar, 144 h, application rate 200 ppm, sunflower leaf discs sprayed, mixed ages, 6 DAT, read-out: control (mortality)
Method: Myzus persicae (Green Peach Aphid):
Sunflower leaf discs were placed on agar in a 24-well microtiter plate and sprayed with test solutions at an application rate of 200 ppm. After drying, the leaf discs were infested with an aphid population of mixed ages. After an incubation period of 6 DAT, samples were checked for mortality.

Tetranychus urticae = Tetranychus urticae (two-spotted spider mite) leaf disc test; conditions: foliar, 192 h, application rate 200 ppm, bean leaf discs sprayed, 8 days after infestation, read-out: control (mortality on mixed population, mobile stages)
Method: Tetranychus urticae (Two-Spotted Spider Mite):
Bean leaf discs on agar in 24-well microtiter plates were sprayed with aqueous test solutions prepared from 10′000 ppm DMSO stock solutions. After drying the leaf discs were infested with a mite population of mixed ages. The samples were assessed for mortality on mixed population (mobile stages) 8 days after infestation.

[1] = application rate 200 ppm, maize sprouts sprayed, L2 larvae, 4 days after infestation
[2] = application rate 200 ppm, artificial diet, L2 larvae, 5 days after infestation
[3] = application rate 200 ppm, sunflower leaf discs sprayed, mixed ages, 6 days after infestation
[4] = application rate 200 ppm, soybean leaves sprayed, N2 nymphs, 5 days after infestation

CN(C(=O)c1cc(-c2cnn(-c3c(C(F)(F)F)c(OS(=O)(=O)C(F)(F)C(F)(F)C(F)(F)C(F)(F)F)nn3C)c2)ccc1Cl)C1(C#N)CC1 [Compound 6, [5-[4-[4-chloro-3-[(1-cyanocyclopropyl)-methyl-carbamoyl]phenyl]pyrazol-1-yl]-1-methyl-4-(trifluoromethyl)pyrazol-3-yl] 1,1,2,2,3,3,4,4,4-nonafluorobutane-1-sulfonate]
≥ 80%: mortality at 200 ppm (Diabrotica Balteata) | mortality at 200 ppm (Plutella xylostella) | mortality at 200 ppm (Thrips tabaci) | mortality at 200 ppm (Euschistus heros) | percent control (mortality, anti-feedant effect or growth inhibition) at 200 ppm (Spodoptera littoralis)

CN(C(=O)c1cc(-c2cnn(-c3c(C(F)(F)F)c(OS(=O)(=O)C(F)(C(F)(F)F)C(F)(F)F)nn3C)c2)cnc1Cl)C1CC1 [Compound 22, [5-[4-[6-chloro-5-[cyclopropyl(methyl)carbamoyl]-3-pyridyl]pyrazol-1-yl]-1-methyl-4-(trifluoromethyl)pyrazol-3-yl] 1,1,1,2,3,3,3-heptafluoropropane-2-sulfonate]
≥ 80%: mortality at 200 ppm (Myzus persicae) | mortality at 200 ppm (Tetranychus urticae) | mortality at 200 ppm (Diabrotica Balteata; [1]) | mortality at 200 ppm (Plutella xylostella; [2]) | mortality at 200 ppm (Thrips tabaci; [3]) | percent control (mortality, anti-feedant effect or growth inhibition) at 200 ppm (Spodoptera littoralis)

CCN(C(=O)c1cc(-c2cnn(-c3c(C(F)(F)F)c(OS(=O)(=O)C(F)(C(F)(F)F)C(F)(F)F)nn3C)c2)cnc1Cl)C1(C#N)CC1 [Compound 26, [5-[4-[6-chloro-5-[(1-cyanocyclopropyl)-ethyl-carbamoyl]-3-pyridyl]pyrazol-1-yl]-1-methyl-4-(trifluoromethyl)pyrazol-3-yl] 1,1,1,2,3,3,3-heptafluoropropane-2-sulfonate]
≥ 80%: mortality at 200 ppm (Myzus persicae) | mortality at 200 ppm (Tetranychus urticae) | mortality at 200 ppm (Diabrotica Balteata; [1]) | mortality at 200 ppm (Plutella xylostella; [2]) | mortality at 200 ppm (Thrips tabaci; [3]) | percent control (mortality, anti-feedant effect or growth inhibition) at 200 ppm (Spodoptera littoralis)

CCN(C(=O)c1cc(-c2cnn(-c3c(C(F)(F)F)c(OS(=O)(=O)C(F)(F)C(F)(F)C(F)(F)C(F)(F)F)nn3C)c2)cnc1Cl)C1(C#N)CC1 [Compound 32, [5-[4-[6-chloro-5-[(1-cyanocyclopropyl)-ethyl-carbamoyl]-3-pyridyl]pyrazol-1-yl]-1-methyl-4-(trifluoromethyl)pyrazol-3-yl] 1,1,2,2,3,3,4,4,4-nonafluorobutane-1-sulfonate]
≥ 80%: mortality at 200 ppm (Diabrotica Balteata) | mortality at 200 ppm (Plutella xylostella) | mortality at 200 ppm (Thrips tabaci) | mortality at 200 ppm (Euschistus heros) | percent control (mortality, anti-feedant effect or growth inhibition) at 200 ppm (Spodoptera littoralis)

Cn1nc(OS(=O)(=O)C(F)(C(F)(F)F)C(F)(F)F)c(C(F)(F)F)c1-n1cc(-c2ccc(Cl)c(C(=O)NC3(C(F)(F)F)CC3)c2)cn1 [Compound 65, [5-[4-[4-chloro-3-[[1-(trifluoromethyl)cyclopropyl]carbamoyl]phenyl]pyrazol-1-yl]-1-methyl-4-(trifluoromethyl)pyrazol-3-yl] 1,1,1,2,3,3,3-heptafluoropropane-2-sulfonate]
≥ 80%: mortality at 200 ppm (Tetranychus urticae) | mortality at 200 ppm (Plutella xylostella; [2]) | mortality at 200 ppm (Euschistus heros; [4]) | percent control (mortality, anti-feedant effect or growth inhibition) at 200 ppm (Spodoptera littoralis)

Cn1nc(OS(=O)(=O)C(F)(C(F)(F)F)C(F)(F)F)c(C(F)(F)F)c1-n1cc(-c2ccc(Cl)c(C(=O)NC3(CC#N)CC3)c2)cn1 [Compound 68, [5-[4-[4-chloro-3-[[1-(cyanomethyl)cyclopropyl]carbamoyl]phenyl]pyrazol-1-yl]-1-methyl-4-(trifluoromethyl)pyrazol-3-yl] 1,1,1,2,3,3,3-heptafluoropropane-2-sulfonate]
≥ 80%: mortality at 200 ppm (Tetranychus urticae) | mortality at 200 ppm (Plutella xylostella; [2]) | mortality at 200 ppm (Euschistus heros; [4]) | percent control (mortality, anti-feedant effect or growth inhibition) at 200 ppm (Spodoptera littoralis)
